Measured values: EP1228058B1, “BENZOPYRANYL GUANIDINE DERIVATIVES, PROCESS FOR PREPARATION THEREOF, AND PHARMACEUTICAL COMPOSITIONS CONTAINING THEM” (Dongbu Hannong Chemical Co., Ltd., priority 1999, dated 2001)

Test system: ischemic heart models of beagle dogs
Assay: Heart protective (anti-ischemic) activity in ischemic heart models of anesthetized beagle dogs
Format: in vivo
Conditions: total dose 2 mg/kg infused i.v. over 40 min, 90 min occlusion, 5 h reperfusion
Protocol: In order to determine whether the compounds of the formula 1 are protective for the ischemic hearts of larger animals, experiments determining the anti-ischemic effects of the compounds on beagle dogs were conducted as follows. The experiments on beagle dogs followed the method of Grover et al.' (G. J. Grover et al., J. Cardiovasc. Pharmacol. 25, 40 (1995)).
After being anesthetized by an intravenous injection of pentobarbital at a dose of 35 mg/kg, male beagle dogs (8-12 kg) were further infused with pentobarbital sodium at a dose of 3-4 mg/kg through the right cephalic vein throughout the experiments, so as to keep the anesthesia constant. […] The heart rate was measured by a tachometer, such as that manufactured by Gould Inc., OH, U.S.A., identified as Biotachometer. In addition, all of the changes occurring during the experiment were continuously recorded through the Gould 2000 chart recorder, manufactured by Gould Inc.
The fifth intercostal space was incised to open the thorax and the LAD was separated from its surrounding tissues. […] The LAD part upstream of the silk ligature was isolated from adjacent tissues and the blood flow was measured quantitatively. […] Using polygraph such as Grass Model 7E, the electrocardiogram was measured and read (Lead II). […]

## COC(OC)[C@@]1(C)Oc2ccc([N+](=O)[O-])cc2[C@H](NC(=NC#N)NCc2ccccc2)[C@H]1O [Example 24, (2S, 3R, 4S)-N''-cyano-N-(6-nitro-3,4-dihydro-3-hydroxy-2-methyl-2-dimethoxymethyl-2H-benzopyran-4-yl)-N'-benzylguanidine]
  Anti-ischemic Activity (in vivo, dogs) (2 mg/kg/40 i.v.) min,i.v.) IZ/AAR (%): 28.03%
